The values that follow come from article PMC9570211, “Analysis of 1-Aroyl-3-[3-chloro-2-methylphenyl] Thiourea Hybrids as Potent Urease Inhibitors: Synthesis, Biochemical Evaluation and Computational Approach” (International Journal of Molecular Sciences, 2022).

Read-outs that look alike come from different tables or passages of the source.

Assay [1] concerns the target T1, jack bean urease (JBU) (Canavalia ensiformis, UniProt P07374). The assay can be described thus: biochemical. The procedure: Hydrophobic and hydrophilic groups were substituted on a phenyl ring in the novel analogues 4a–j that were synthesized in order to check urease inhibition activity.
The function of nitro, chloro, methyl and ethyl substitution in urease inhibitory activity was evaluated. Thiourea, a well-known urease inhibitor, served as the reference compound.
The methodology used in this research for in vitro urease inhibitory activity is the same as reported in our earlier paper.

Assay [2] in a line: DPPH free radical scavenging assay. The conditions noted are these: in comparison of standard Vitamin C; up to 100 µg/mL. The method, then:
All of the produced 1-aroyl-3-[3-chloro-2-methylphenyl]thiourea compounds were assessed for the ability of DPPH free radical scavenging activity as depicted in Figure 2.
The assay performed in our studies had the same methodology as reported in our previous research articles.
In general terms: The DPPH test is a chemical assay of radical scavenging.

The target of assay [3] is T1, jack bean urease (JBU). Briefly: Kinetic analysis of urease inhibition (Lineweaver–Burk). It counts as biochemical. The source says: Kinetic investigations provided additional evidence for the inhibitory function, in which the potential of the potent derivative 4i to inhibit the substrate at different concentrations in such a way that enzyme concentration remained constant. The kinetic tests of the enzyme gave a series of straight lines by the Lineweaver–Burk plot of 1/V versus 1/[S] in the presence of varying compound concentrations (Figure 3A).
Kinetics performed here as stated previously in our research articles was used for urease activity determination.
Figure 3 Compound 4i inhibiting urease in a Lineweaver–Burk plot (A) Concentrations of 4i were 0.00, 0.001, 0.002 and 0.004 µM (Blue, green, red and black colored lines). […] The lines were constructed using least squares linear regression mean ± SEM.

T1 sequence (P07374 whole entry, looked up): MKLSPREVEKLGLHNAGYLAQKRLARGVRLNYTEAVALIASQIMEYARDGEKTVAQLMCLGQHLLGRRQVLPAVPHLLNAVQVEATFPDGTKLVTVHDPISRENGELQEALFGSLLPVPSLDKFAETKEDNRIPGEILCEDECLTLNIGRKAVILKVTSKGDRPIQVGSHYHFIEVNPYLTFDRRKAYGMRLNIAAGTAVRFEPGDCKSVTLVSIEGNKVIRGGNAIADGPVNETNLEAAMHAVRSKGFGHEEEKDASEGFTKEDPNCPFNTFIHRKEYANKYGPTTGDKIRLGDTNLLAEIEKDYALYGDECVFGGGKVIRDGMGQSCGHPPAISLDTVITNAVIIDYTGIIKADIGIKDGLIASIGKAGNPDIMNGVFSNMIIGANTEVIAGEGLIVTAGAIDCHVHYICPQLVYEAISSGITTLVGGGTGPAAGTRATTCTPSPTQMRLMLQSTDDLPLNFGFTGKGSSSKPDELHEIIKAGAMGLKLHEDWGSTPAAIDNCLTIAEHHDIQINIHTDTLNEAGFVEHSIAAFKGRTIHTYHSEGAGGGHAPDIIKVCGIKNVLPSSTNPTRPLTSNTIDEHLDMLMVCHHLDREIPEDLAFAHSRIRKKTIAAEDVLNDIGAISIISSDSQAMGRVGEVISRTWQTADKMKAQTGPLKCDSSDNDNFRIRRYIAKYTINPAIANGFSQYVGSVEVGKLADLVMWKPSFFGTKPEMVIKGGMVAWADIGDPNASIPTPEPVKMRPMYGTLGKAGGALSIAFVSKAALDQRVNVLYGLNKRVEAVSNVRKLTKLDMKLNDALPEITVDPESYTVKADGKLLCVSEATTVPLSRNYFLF

Consider `Cc1c(Cl)cccc1NC(=S)NC(=O)c1ccccc1` [Compound 4a, N-[[3-chloro-2-methylphenyl]carbamothioyl]benzamide], for which, at jack bean urease (JBU) [1], half-maximal inhibition (IC50) required 44.9 ± 85.4 nM.
In turn, `COc1ccc(C(=O)NC(=S)Nc2cccc(Cl)c2C)cc1` [Compound 4b] displayed a concentration for half-maximal inhibition (IC50) on jack bean urease (JBU) [1] of 7.9 ± 4.8 nM.
In the case of `Cc1ccc(C(=O)NC(=S)Nc2cccc(Cl)c2C)cc1` [Compound 4d], on jack bean urease (JBU) [1], the IC50 came out at 53.2 ± 99.5 nM. In assay [2], the “DPPH free radical scavenging activity” value is listed as “good activity”.
Regarding `Cc1c(Cl)cccc1NC(=S)NC(=O)c1ccc([N+](=O)[O-])cc1` [Compound 4e], the “DPPH free radical scavenging activity” value in assay [2] is given as “good activity”.
On jack bean urease (JBU) [1], `Cc1c(Cl)cccc1NC(=S)NC(=O)c1cccc([N+](=O)[O-])c1` [Compound 4f] returned a concentration for half-maximal inhibition (IC50) of 13.6 nM. Further, the “DPPH free radical scavenging activity” value in assay [2] was “good activity”.
Consider `Cc1c(Cl)cccc1NC(=S)NC(=O)c1cc([N+](=O)[O-])cc([N+](=O)[O-])c1` [Compound 4g], for which, on jack bean urease (JBU) [1], the midpoint of inhibition, the IC50, lay at 33.5 ± 99.4 nM. Besides, the “DPPH free radical scavenging activity” value in assay [2] was “good activity”.
For `Cc1c(Cl)cccc1NC(=S)NC(=O)c1ccc(Cl)cc1` [Compound 4h], in that order: 22.9 nM and “good activity”.
For the molecule `Cc1c(Cl)cccc1NC(=S)NC(=O)c1ccccc1Cl` [Compound 4i], at jack bean urease (JBU) [1], the IC50 is 1.9 ± 1.1 nM. The Ki on jack bean urease (JBU) [3] amounted to 0.3 nM. On jack bean urease (JBU) [3] (Lineweaver–Burk plot), the “Inhibition Type” value was “Non-Competitive”. Besides, the Vmax at jack bean urease (JBU) [3] (concentration of 4i 0.001 (µM per Figure 3)) is reported as 0.000387 ΔA/Min; on jack bean urease (JBU) [3] (concentration of 4i 0.002 (µM per Figure 3)), 0.000131 ΔA/Min; on jack bean urease (JBU) [3] (concentration of 4i 0.004 (µM per Figure 3)), 8.495 × 10^−5 ΔA/Min. The “DPPH free radical scavenging activity” value in assay [2] is “good activity”.
As to `NC(N)=S` [Thiourea], the IC50 on jack bean urease (JBU) [1] (jack bean urease, mean ± SEM, read-out: Urease Activity IC50 ± SEM) came out at 4750 ± 54.5 nM.

The term IC50 denotes the point on the concentration scale where inhibition reaches its midpoint. As usually defined, the Ki is a measure of affinity in units of concentration, obtained from inhibition or displacement. Low values mean tighter binding, high ones weaker binding.
